# Where a name gives a salt, the structure may show the parent alone.
# Assays:
# [1] = target: human SMG1 enzyme (Homo sapiens, UniProt Q96Q15); assay: Measurement of SMG1 kinase activity (ADP-Glo Kinase Assay); assay type: biochemical; settings: purified human SMG1 enzyme 5 nM, Upf1 peptide substrate, ATP 4 μM; qAC50 synonymous with IC50; read-out: Test Example 1 ADP-Glo IC50
# From the text: The SMG1 kinase inhibitory activity of a compound of the present invention or a pharmaceutically acceptable salt thereof can be measured, for example, by the method described below. Using purified human SMG1 protein and a substrate peptide as materials, the kinase activity can be measured by the ADP-Glo Kinase Assay; the SMG1 kinase inhibitory activity of a test substance can be evaluated by comparing the kinase activity in the presence and absence of the test substance.
# The reaction was performed by the ADP-Glo Kinase Assay (Promega, catalog number V9102) using a 384-well plate under the conditions of an assay buffer (100 mM HEPES (pH 7.5), 50 mM NaCl, 10 mM MnCl2, 0.01% BSA, 0.1% Tween 20.5 mM TCEP). After incubating a test substance (DMSO solution; final DMSO concentration: 1%) and purified human SMG1 enzyme (Genes Dev. 2011 Jan. 15; 25(2): 153-164, produced by Daiichi Sankyo RD Novare Co., Ltd.; final concentration: 5 nM) at room temperature for 15 minutes, a substrate, Upf1 peptide (Biotin-(PEG8) QIDVALSQDSTYQG, produced by Eurofins genomics; final concentration: 8 μg/mL), and ATP (Promega: 4 μM) were added, and the mixture was reacted at room temperature for 60 minutes (see Non-Patent Literature R. Melero, et al., Structure Volume 22, Issue 8, 5 Aug. 2014, Pages 1105-1119 for the Upf1 peptide). ADP-Glo Reagent was added, and the mixture was reacted at room temperature for 40 minutes. Kinase Detection Reagent was added, and the mixture was reacted for another 30 minutes. The luminescence intensity was measured using EnVision (PerkinElmer).
# The activity value (%) of the test substance-added well was calculated from the following formula, where the average luminescence intensity of the DMSO-added well was 0% and the average luminescence intensity of the SMG1 enzyme-free well was −100%.
# The qAC50 (compound concentration showing 50% inhibition, synonymous with IC50) of the test substance was calculated using the activity value (%) at each concentration by Smart fit of Screener (Genedata). Smart fit is a general 4-parameter logistic regression model.
# [2] = system: Snhg1 transcript (NMD target gene) in EMT6 murine breast cancer cell line; assay: Measurement of NMD inhibitory activity in cells (increase in Snhg1 transcript, real-time PCR); design: species or system mouse; settings: Mus musculus, 6 hours treatment, concentration giving 1/2 of maximum Snhg1 fold change of positive control, read-out: Test Example 2 Cell-based Snhg1 EC50
# Protocol: The NMD inhibitory activity of a compound of the present invention or a pharmaceutically acceptable salt thereof in cells can be measured, for example, by the method described below. EMT6 murine breast cancer cell line is treated with a test substance in vitro for 6 hours, and the increase in the transcript of Snhg1, a known NMD target gene, is quantified as an indicator of NMD inhibition. Quantification is performed by real-time PCR.
# NMD inhibitory activity was measured by treating EMT6 murine breast cancer cell line (ATCC) with a test substance and quantifying the increase in the transcript of Snhg1, an NMD target gene (see F. Usui, et al., Scientific Reports volume 9, Article number: 1279 (2019) for the NMD target gene). That is, EMT6 cells were suspended in Waymouth's medium (Gibco, 15% FBS) and seeded in a 96-well plate at 2×10^4 cells/well. The cells were cultured for 1 day. The next day, serially diluted test substance (DMSO solution, final DMSO concentration: 2%) was added. After culturing for 6 hours, the supernatant was removed, and RNA was extracted using the RNeasy 96 kit (QIAGEN, 74182). After synthesizing cDNA using the High Capacity cDNA Reverse Transcription kit (Applied Biosystems, 4368813), the cDNA was mixed with PrimeTime Gene Expression Master Mix (Integrated DNA Technologies) and various probes, and gene expression was quantified using QuantStudio 6 Flex (Thermo Fisher Scientific Inc.). For the probe for the Snhg1 gene, which is an NMD target, Mm.PT.58.44039547 (FAM)(Integrated DNA Technologies) was used, and for the probe for the Tbp gene, which is an endogenous control, Mm00446973_m1 Tbp (VIC-PL) (Applied Biosystems) was used. The relative quantification of Snhg1 transcripts was calculated by the ΔΔCT method, using Thp as an endogenous control and setting the expression level of Snhg1 in untreated wells to 1.
# A known NMD inhibitory compound (pyrimidine derivative Example 11i, Bioorg Med Chem Lett. 2012, 22(21), 6636-41) was used as a positive control drug for NMD inhibition. The NMD inhibitory activity of the test substance-added well was calculated as follows: the maximum fold change in Sngh1 expression in the positive control drug-added well relative to that in the untreated well was defined as the maximum NMD inhibitory activity, and the EC50 (compound concentration showing 50%/activity) of the test substance showing a ½-fold change was calculated by the GROWTH function of Microsoft Excel.
# human SMG1 enzyme, sequence (Q96Q15 whole entry): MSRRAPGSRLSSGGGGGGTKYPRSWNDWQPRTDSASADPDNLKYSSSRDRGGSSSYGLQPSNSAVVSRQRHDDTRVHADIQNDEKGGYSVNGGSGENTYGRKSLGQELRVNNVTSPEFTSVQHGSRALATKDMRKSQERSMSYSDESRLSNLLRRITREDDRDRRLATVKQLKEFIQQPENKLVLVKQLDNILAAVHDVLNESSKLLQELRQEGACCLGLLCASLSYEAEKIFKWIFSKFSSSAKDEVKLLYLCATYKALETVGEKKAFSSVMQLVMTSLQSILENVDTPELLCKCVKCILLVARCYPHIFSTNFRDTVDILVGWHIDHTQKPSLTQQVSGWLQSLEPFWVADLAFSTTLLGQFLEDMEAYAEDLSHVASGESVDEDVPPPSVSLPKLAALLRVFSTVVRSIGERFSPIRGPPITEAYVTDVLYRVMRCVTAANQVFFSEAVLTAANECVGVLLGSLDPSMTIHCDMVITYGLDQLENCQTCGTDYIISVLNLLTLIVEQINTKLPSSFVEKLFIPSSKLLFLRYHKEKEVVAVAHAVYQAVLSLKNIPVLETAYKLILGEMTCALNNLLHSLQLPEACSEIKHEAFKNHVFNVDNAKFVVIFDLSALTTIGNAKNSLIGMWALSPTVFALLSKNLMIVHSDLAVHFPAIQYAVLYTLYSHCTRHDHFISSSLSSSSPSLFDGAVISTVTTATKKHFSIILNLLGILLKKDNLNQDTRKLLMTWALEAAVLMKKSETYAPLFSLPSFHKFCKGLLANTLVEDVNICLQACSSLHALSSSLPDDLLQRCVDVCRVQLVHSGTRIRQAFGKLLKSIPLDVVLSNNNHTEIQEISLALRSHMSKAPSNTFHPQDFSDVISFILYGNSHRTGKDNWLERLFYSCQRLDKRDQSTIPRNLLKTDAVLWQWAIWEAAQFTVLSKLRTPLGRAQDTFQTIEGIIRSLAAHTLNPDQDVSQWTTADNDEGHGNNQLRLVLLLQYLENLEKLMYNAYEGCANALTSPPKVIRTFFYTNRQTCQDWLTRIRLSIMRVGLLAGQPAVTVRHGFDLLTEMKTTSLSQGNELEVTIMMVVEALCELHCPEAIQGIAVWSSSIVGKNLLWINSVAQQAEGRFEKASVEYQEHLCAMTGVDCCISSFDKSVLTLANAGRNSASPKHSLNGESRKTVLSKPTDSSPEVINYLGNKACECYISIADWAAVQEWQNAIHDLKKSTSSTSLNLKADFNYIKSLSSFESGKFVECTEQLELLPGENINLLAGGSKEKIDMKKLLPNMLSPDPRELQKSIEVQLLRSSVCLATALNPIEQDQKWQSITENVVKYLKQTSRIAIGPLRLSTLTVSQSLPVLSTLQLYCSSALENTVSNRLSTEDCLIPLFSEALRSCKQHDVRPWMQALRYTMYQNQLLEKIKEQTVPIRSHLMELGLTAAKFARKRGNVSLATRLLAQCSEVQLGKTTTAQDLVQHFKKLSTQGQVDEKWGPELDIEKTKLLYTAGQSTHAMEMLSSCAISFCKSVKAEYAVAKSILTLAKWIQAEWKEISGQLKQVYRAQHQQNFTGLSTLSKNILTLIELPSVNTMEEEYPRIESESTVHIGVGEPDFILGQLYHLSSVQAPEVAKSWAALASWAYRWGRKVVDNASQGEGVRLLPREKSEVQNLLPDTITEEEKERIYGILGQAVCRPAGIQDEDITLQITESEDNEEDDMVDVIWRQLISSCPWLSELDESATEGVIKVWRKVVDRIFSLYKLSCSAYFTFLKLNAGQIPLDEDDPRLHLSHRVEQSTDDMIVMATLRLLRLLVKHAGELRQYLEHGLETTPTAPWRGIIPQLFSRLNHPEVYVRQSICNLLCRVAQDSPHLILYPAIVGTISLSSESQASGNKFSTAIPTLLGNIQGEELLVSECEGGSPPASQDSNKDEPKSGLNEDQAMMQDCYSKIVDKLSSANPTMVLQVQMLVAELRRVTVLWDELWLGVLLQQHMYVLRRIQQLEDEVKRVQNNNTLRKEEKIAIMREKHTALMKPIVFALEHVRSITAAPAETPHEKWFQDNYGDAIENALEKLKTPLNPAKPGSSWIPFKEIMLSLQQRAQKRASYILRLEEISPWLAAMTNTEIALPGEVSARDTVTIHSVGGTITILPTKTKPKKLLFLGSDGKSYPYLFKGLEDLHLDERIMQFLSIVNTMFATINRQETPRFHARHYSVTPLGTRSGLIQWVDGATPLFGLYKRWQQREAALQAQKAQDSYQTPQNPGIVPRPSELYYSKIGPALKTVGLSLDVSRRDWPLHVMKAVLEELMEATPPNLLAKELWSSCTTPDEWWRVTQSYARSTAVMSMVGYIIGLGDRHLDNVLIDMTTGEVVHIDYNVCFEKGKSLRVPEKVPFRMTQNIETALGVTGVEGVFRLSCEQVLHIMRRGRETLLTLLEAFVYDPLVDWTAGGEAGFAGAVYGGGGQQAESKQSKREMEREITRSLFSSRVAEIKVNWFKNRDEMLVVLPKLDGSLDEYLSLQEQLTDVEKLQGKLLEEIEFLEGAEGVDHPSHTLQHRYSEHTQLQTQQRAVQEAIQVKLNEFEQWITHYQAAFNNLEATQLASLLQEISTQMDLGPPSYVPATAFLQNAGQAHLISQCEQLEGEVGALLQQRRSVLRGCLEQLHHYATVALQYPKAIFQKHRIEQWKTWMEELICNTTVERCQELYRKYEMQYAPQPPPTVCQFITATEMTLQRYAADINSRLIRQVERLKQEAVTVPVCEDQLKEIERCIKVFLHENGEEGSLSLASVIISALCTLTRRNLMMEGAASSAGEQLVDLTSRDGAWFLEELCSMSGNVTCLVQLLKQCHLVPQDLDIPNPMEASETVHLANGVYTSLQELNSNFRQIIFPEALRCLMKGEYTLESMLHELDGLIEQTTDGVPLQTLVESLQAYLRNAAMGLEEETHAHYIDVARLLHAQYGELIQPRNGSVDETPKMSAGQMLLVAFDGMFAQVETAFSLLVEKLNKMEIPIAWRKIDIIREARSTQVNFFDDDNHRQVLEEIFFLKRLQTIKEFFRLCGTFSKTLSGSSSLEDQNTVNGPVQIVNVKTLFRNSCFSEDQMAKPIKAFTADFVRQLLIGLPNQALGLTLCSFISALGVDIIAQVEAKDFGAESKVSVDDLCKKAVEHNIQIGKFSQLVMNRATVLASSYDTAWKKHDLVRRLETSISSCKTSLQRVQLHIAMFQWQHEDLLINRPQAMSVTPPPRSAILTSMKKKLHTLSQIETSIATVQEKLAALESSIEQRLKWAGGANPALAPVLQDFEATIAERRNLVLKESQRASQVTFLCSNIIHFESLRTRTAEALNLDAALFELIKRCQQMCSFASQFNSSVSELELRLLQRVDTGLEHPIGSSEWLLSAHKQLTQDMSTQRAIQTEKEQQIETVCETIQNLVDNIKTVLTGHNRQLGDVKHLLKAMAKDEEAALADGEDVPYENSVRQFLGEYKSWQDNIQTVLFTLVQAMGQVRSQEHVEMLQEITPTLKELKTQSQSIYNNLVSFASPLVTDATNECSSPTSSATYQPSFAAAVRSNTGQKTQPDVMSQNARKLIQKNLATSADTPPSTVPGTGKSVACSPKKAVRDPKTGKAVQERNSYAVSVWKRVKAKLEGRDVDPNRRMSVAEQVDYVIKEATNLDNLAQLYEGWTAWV
SMILES,IC50 [1] [nM],EC50 [2] [nM]
"Cc1nc(Cl)cc2[nH]c(-c3cc4c(-c5c(F)cccc5C#N)nccc4[nH]c3=O)nc12 [Example 45, 2-[3-(6-chloro-4-methyl-1H-imidazo[4,5-c]pyridin-2-yl)-2-oxo-1,2-dihydro-1,6-naphthyridin-5-yl]-3-fluorobenzonitrile]",0.8,11
"CC(C)(O)c1cccc(-c2nccc3[nH]c(=O)c(-c4nc5cnc(Cl)cc5[nH]4)cc23)c1 [Example 46, 3-(6-chloro-1H-imidazo[4,5-c]pyridin-2-yl)-5-[3-(2-hydroxypropan-2-yl)phenyl]-1,6-naphthyridin-2(1H)-one]",1.8,115
"O=c1[nH]c2ccnc(-c3cccc(CN4C5CCC4COC5)c3)c2cc1-c1nc2cnc(Cl)cc2[nH]1 [Example 47, 3-(6-chloro-1H-imidazo[4,5-c]pyridin-2-yl)-5-[3-(3-oxa-8-azabicyclo[3.2.1]octan-8-ylmethyl)phenyl]-1,6-naphthyridin-2(1H)-one]",2.1,117
"Cc1ccccc1-c1nccc2[nH]c(=O)c(-c3nc4c(N5CCCC(N)C5)nc(Cl)cc4[nH]3)cc12 (stereo not shown) [Example 56, 3-[4-(3-aminopiperidin-1-yl)-6-chloro-1H-imidazo[4,5-c]pyridin-2-yl]-5-(2-methylphenyl)-1,6-naphthyridin-2(1H)-one hydrochloride]",0.52,1.2
"COc1cc(C)ncc1-c1nccc2[nH]c(=O)c(-c3nc4c(C)nc(Cl)cc4[nH]3)cc12 [Example 59, 3-(6-chloro-4-methyl-1H-imidazo[4,5-c]pyridin-2-yl)-5-(4-methoxy-6-methylpyridin-3-yl)-1,6-naphthyridin-2(1H)-one]",0.52,41
"CCc1nc(Cl)cc2[nH]c(-c3cc4c(-c5cnc(C)cc5OC)nccc4[nH]c3=O)nc12 [Example 60, 3-(6-chloro-4-ethyl-1H-imidazo[4,5-c]pyridin-2-yl)-5-(4-methoxy-6-methylpyridin-3-yl)-1,6-naphthyridin-2(1H)-one]",0.7,5.7
"COc1cc(C2CC2)ncc1-c1nccc2[nH]c(=O)c(-c3nc4cnc(Cl)cc4[nH]3)cc12 [Example 62, 3-(6-chloro-1H-imidazo[4,5-c]pyridin-2-yl)-5-(6-cyclopropyl-4-methoxypyridin-3-yl)-1,6-naphthyridin-2(1H)-one]",0.95,16
"COc1cc(C(F)F)ncc1-c1nccc2[nH]c(=O)c(-c3nc4c(C)nc(Cl)cc4[nH]3)cc12 [Example 63, 3-(6-chloro-4-methyl-1H-imidazo[4,5-c]pyridin-2-yl)-5-[6-(difluoromethyl)-4-methoxypyridin-3-yl]-1,6-naphthyridin-2(1H)-one]",0.68,14
"COc1cc(C(F)(F)F)ncc1-c1nccc2[nH]c(=O)c(-c3nc4c(C)nc(Cl)cc4[nH]3)cc12 [Example 64, 3-(6-chloro-4-methyl-1H-imidazo[4,5-c]pyridin-2-yl)-5-[4-methoxy-6-(trifluoromethyl)pyridin-3-yl]-1,6-naphthyridin-2(1H)-one]",0.84,15
"COc1cc(C(C)(F)F)ncc1-c1nccc2[nH]c(=O)c(-c3nc4c(C)nc(Cl)cc4[nH]3)cc12 [Example 65, 3-(6-chloro-4-methyl-1H-imidazo[4,5-c]pyridin-2-yl)-5-[6-(1,1-difluoroethyl)-4-methoxypyridin-3-yl]-1,6-naphthyridin-2(1H)-one]",0.69,15
"COc1nc(C)ccc1-c1nccc2[nH]c(=O)c(-c3nc4cnc(Cl)cc4[nH]3)cc12 [Example 66, 3-(6-chloro-1H-imidazo[4,5-c]pyridin-2-yl)-5-(2-methoxy-6-methylpyridin-3-yl)-1,6-naphthyridin-2(1H)-one]",2.2,67
"COc1nc(C)ccc1-c1nccc2[nH]c(=O)c(-c3nc4c(C)nc(Cl)cc4[nH]3)cc12 [Example 67, 3-(6-chloro-4-methyl-1H-imidazo[4,5-c]pyridin-2-yl)-5-(2-methoxy-6-methylpyridin-3-yl)-1,6-naphthyridin-2(1H)-one]",1,32
"COc1nc(C)ncc1-c1nccc2[nH]c(=O)c(-c3nc4c(NCC(F)F)nc(Cl)cc4[nH]3)cc12 [Example 69, 3-(6-chloro-4-[(2,2-difluoroethyl)amino]-1H-imidazo[4,5-c]pyridin-2-yl)-5-(4-methoxy-2-methylpyrimidin-5-yl)-1,6-naphthyridin-2(1H)-one]",0.91,6.8
"COc1ncc(-c2nccc3[nH]c(=O)c(-c4nc5c(N6C[C@H](F)C[C@H]6C)nc(Cl)cc5[nH]4)cc23)c(OC)n1 [Example 71, 3-(6-chloro-4-[(2R,4R)-4-fluoro-2-methylpyrrolidin-1-yl]-1H-imidazo[4,5-c]pyridin-2-yl)-5-(2,4-dimethoxypyrimidin-5-yl)-1,6-naphthyridin-2(1H)-one]",1.3,2.3
"CCc1nc(Cl)cc2[nH]c(-c3cc4c(-c5cnc(C6CC6)cc5OC(F)F)nccc4[nH]c3=O)nc12 [Example 75, 3-(6-chloro-4-ethyl-1H-imidazo[4,5-c]pyridin-2-yl)-5-[6-cyclopropyl-4-(difluoromethoxy)pyridin-3-yl]-1,6-naphthyridin-2(1H)-one]",1.2,51
"Cn1ccc(-c2nccc3[nH]c(=O)c(-c4nc5cnc(Cl)cc5[nH]4)cc23)c1 [Example 86, 3-(6-chloro-1H-imidazo[4,5-c]pyridin-2-yl)-5-(1-methyl-1H-pyrrol-3-yl)-1,6-naphthyridin-2(1H)-one]",1.8,43
"CCc1nc(Cl)cc2[nH]c(-c3cc4c(-c5c(C)cnn5C)nccc4[nH]c3=O)nc12 [Example 87, 3-(6-chloro-4-ethyl-1H-imidazo[4,5-c]pyridin-2-yl)-5-(1,4-dimethyl-1H-pyrazol-5-yl)-1,6-naphthyridin-2(1H)-one]",1.3,59
"Cc1nn(C)c(C)c1-c1nccc2[nH]c(=O)c(-c3nc4cnc(Cl)cc4[nH]3)cc12 [Example 88, 3-(6-chloro-1H-imidazo[4,5-c]pyridin-2-yl)-5-(1,3,5-trimethyl-1H-pyrazol-4-yl)-1,6-naphthyridin-2(1H)-one]",1.1,46
"CCc1nc(Cl)cc2[nH]c(-c3cc4c(-c5c(C)nn(C)c5C)nccc4[nH]c3=O)nc12 [Example 89, 3-(6-chloro-4-ethyl-1H-imidazo[4,5-c]pyridin-2-yl)-5-(1,3,5-trimethyl-1H-pyrazol-4-yl)-1,6-naphthyridin-2(1H)-one]",0.59,14
"Cc1nn(CC2CC2)c(C)c1-c1nccc2[nH]c(=O)c(-c3nc4cnc(Cl)cc4[nH]3)cc12 [Example 90, 3-(6-chloro-1H-imidazo[4,5-c]pyridin-2-yl)-5-[1-(cyclopropylmethyl)-3,5-dimethyl-1H-pyrazol-4-yl]-1,6-naphthyridin-2(1H)-one]",1.5,74
